Experimental data: patent publication US20160074401A1, “COMPOSITIONS AND METHODS UTILIZING PHOSPHODIESTERASE INHIBITORS TO TREAT BLAST-INDUCED TINNITUS AND/OR HEARING LOSS” (WAYNE STATE UNIVERSITY, priority 2013, published 2016)

Tests used:
[1] = test system: focal cerebral cryolesion; conditions: treatment following cryolesion; cited from earlier work
[2] = test system: blast-exposed Sprague Dawley rats (wave 1 amplitude); assay: ABR wave 1 (P1N1) amplitude after blast exposure; format: in vivo, rat; conditions: 28 kHz
Procedure: ABRs were recorded to evaluate hearing thresholds. Each rat was anesthetized using a mixture of air (0.41/min) and isoflurane (2-3%, v/v) and placed in a prone position with its head fixed to a stereotaxic frame. Body temperature was maintained using a warming blanket connected to a thermostatic controller (Harvard Instruments, Holliston, Mass.). Acoustic stimuli consisted of 0.1 ms clicks or 10 ms pure-tone bursts presented at 4, 8, 12, 16, 20, or 28 kHz and delivered through a speaker tube inserted into the external auditory canal. Three subcutaneous platinum-coated tungsten electrodes were used to record ABR waveforms, with the reference electrode inserted below the pinna ipsilateral to the speaker tube, the grounding electrode inserted below the contralateral pinna, and the recording electrode inserted at the vertex. […] Data were recorded using BioSigRP® and SigGenRP® software (TDT, Alachua, Fla.) installed on an IBM computer connected to System 3 TDT workstation.
There is a significant reduction in wave 1 amplitudes in human subjects suffering from tinnitus despite a seemingly normal audiogram. In order to assess the possibility of underlying wave 1 amplitude reduction despite recovery of ABR thresholds, wave 1 amplitudes for 28 kHz frequency were measured at pre-blast and at 6 weeks post-blast and compared between the Treated and Untreated groups (FIGS. 7A and 7B). […]

[3] = test system: rats exposed to embolic stroke; conditions: sildenafil treated rats; cited from earlier work
[4] = upon oral intake; cited from earlier work
[5] = test system: Neurospheres isolated from the subventricular zone of adult rat brains; conditions: neurospheres treated with sildenafil; cited from earlier work
[6] = test system: blast-exposed Sprague Dawley rats (blast-induced tinnitus); assay: Gap-detection testing (acoustic startle) for blast-induced tinnitus
Source text: Thirty adult Sprague Dawley rats (110 days old, 250-300 g) were purchased from Charles River Laboratories (Wilmington, Mass.).
Animals underwent 8 rounds of behavior testing to stabilize baseline Gap-detection and PPI performance prior to blast or sham-blast exposure. […] Briefly, each rat was placed in a custom-built polycarbonate restrainer (FIG. 1) and set inside a lit startle monitor cabinet equipped with two ceiling speakers for background sound/prepulses and startle stimuli. Restrainers were mounted on top of a platform connected to a piezoelectric transducer, which measured downward startle force. Acoustic stimuli and startle force were calibrated using a Newton impulse calibrator (Kinder Scientific) and a microphone (Model 4016; ACO Pacific, Belmont, Calif.).
During the Gap-detection procedure, rats were exposed to constant 60 dB sound pressure level (SPL) background noise consisting of 2 kHz bandpass signals from 2-4 kHz, 6-8 kHz, 8-10 kHz, 10-12 kHz, 14-16 kHz, 18-20 kHz, or 26-28 kHz, or BBN (2-30 kHz). They were subjected to either a 50 ms white noise burst startle stimulus (startle only; dominating plateau from 3-37 kHz with energy up to 97.5 kHz) presented at 115 dB or the startle stimulus preceded by a 40 ms silent period beginning 90 ms before the startle stimulus (Gap). For each testing session, rats were presented 8 times with the startle only and Gap conditions for each frequency bandpass signal and BBN. The PPI procedure was identical to the Gap-detection procedure except that no background sound was presented. Rats were subjected to either the startle stimulus alone (startle only) or the startle stimulus preceded by a 40 ms prepulse beginning 90 ms before the startle stimulus. Prepulses (60 dB, SPL) consisted of the same frequencies as those used for background noise.
A two-minute acclimatization period was given at the beginning of each session, followed by two startle stimuli presented without background sound to trigger any initial, exaggerated startle reflexes. Gap-detection and PPI testing sessions lasted a little over thirty minutes each. […]

Compound | Effects after focal cerebral cryolesion [1] | Wave 1 (P1N1) amplitude, Treated vs Untreated ([2]; exposed ear, 6 weeks post-blast) | Decrease of wave 1 amplitude ([2]; 6 weeks after triple blast exposure, Treated group (same in Untreated)) | Effects after embolic stroke [3] | Tmax [4] | cGMP concentration [5] | Gap-detection in Sham group (drug, no blast): tinnitus symptoms produced by the drug ([6]; Sham group: sildenafil 10 mg/kg, no blast exposure, throughout the study) | Effect on high-frequency tinnitus (overall) ([6]; high-frequency (26-28 kHz) tinnitus, reemerged afterwards) | Duration of therapeutic effect on blast-induced tinnitus (Gap-detection) ([6]; sildenafil 10 mg/kg oral gavage, two 7-day rounds)
CCCOc1ccccc1-c1nc2nn[nH]c2c(=O)[nH]1 [Zaprinast] | improved functional recovery, reduced oxidative stress, and prevention of apoptotic cell death | – | – | – | – | – | – | – | –
CCCc1nn(C)c2c(=O)[nH]c(-c3cc(S(=O)(=O)N4CCN(C)CC4)ccc3OCC)nc12 [sildenafil, 1-[4-ethoxy-3-(6,7-dihydro-1-methyl-7-oxo-3-propyl-1H-pyrazolo[4,3-d]pyrimidin-5-yl)phenylsulfonyl]-4-methylpiperazine] | – | no significant differences between the two groups at time-matched points | 45% | improvement in angiogenesis, selective increase in cerebral blood flow, and enhanced neurological functional recovery up to 6 weeks post-injury | ≤ 11 min | increased cGMP concentration | the drug itself did not produce tinnitus symptoms | suppressed high-frequency tinnitus from 3-6 weeks post-blast | maintained up to week 6
